From PubChem BioAssay (NCI)
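Protocol summary: plate cells (96-well), add compound at 5 concentrations, incubate 48 h, interpolate endpoints linearly. GI50 = concentration required for 50% inhibition of growth. At the TGI there is no net growth.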

Experiments:
Assay in all cases: NCI anticancer screen, dose series, 48 h
[1] = test system: HOP-62 NSCLC
[2] = test system: KM12 colon
[3] = test system: SF-295 CNS
[4] = test system: OVCAR-4 ovarian
[5] = test system: UACC-62 melanoma
[6] = test system: CAKI-1 renal
[7] = test system: 786-0 renal
[8] = test system: A549 NSCLC
[9] = test system: MDA-MB-435
[10] = test system: NCI/ADR-RES ovarian

| Compound | GI50 [1] [µM] | TGI [1] [µM] | GI50 [2] [µM] | TGI [2] [µM] | GI50 [3] [µM] | TGI [3] [µM] | GI50 [4] [µM] | TGI [4] [µM] | GI50 [5] [µM] | TGI [5] [µM] | GI50 [6] [µM] | TGI [6] [µM] | GI50 [7] [µM] | TGI [7] [µM] | GI50 [8] [µM] | TGI [8] [µM] | GI50 [9] [µM] | TGI [9] [µM] | GI50 [10] [µM] | TGI [10] [µM] |
| --- | --- | --- | --- | --- | --- | --- | --- | --- | --- | --- | --- | --- | --- | --- | --- | --- | --- | --- | --- | --- |
| C[CH2][Sn]([CH2]C)([O]C(=O)c1ccccc1OC)[O][Sn]([CH2]C)([CH2]C)[O]C(=O)c1ccccc1OC | > 100 | > 100 | > 100 | > 100 | > 100 | > 100 | > 100 | > 100 | > 100 | > 100 | 34.6 | > 100 | > 100 | > 100 | > 100 | > 100 | – | – | – | – |
| Cc1ccc(S(=O)(=O)N/N=C(/CC(=O)c2c(C)n([O-])c3ccccc3[n+]2=O)C(=O)Nc2ccccc2C)cc1 | – | > 100 | – | > 100 | – | > 100 | – | > 100 | – | > 100 | – | > 100 | – | > 100 | – | > 100 | – | – | – | – |
| COCOCC/C=C/C=O | – | – | – | > 100 | – | > 100 | – | – | – | > 100 | – | – | – | > 100 | – | > 100 | – | – | – | – |
| CC(=O)OCCOCNC(=S)N/N=C/c1cc(Br)cs1 | – | > 100 | – | > 100 | – | > 100 | – | > 100 | – | > 100 | – | – | – | > 100 | – | > 100 | – | – | – | – |
| O=C(c1nc2ccccc2[nH]c1=O)C(O)c1ccccc1 (centres undefined) | – | > 100 | – | > 100 | – | > 100 | – | > 100 | – | > 100 | – | > 100 | – | > 100 | – | > 100 | – | – | – | – |
| Cc1ccc(C)c(N2C(=O)C(=O)C(c3nc4ccccc4s3)/C(=N/NC(=O)NN)C2=O)c1 (centres undefined) | – | > 100 | – | > 100 | – | > 100 | – | > 100 | – | > 100 | – | > 100 | – | > 100 | – | > 100 | – | – | – | – |
| C=C1CCC2[C@@H](CCC3[C@]2(C)CCC[C@]3(C)C(=O)OC)C1CC=O (some centres undefined) | 21.2 | 39.8 | 18.7 | 36.6 | 16.8 | 31.3 | – | 32 | – | 31.6 | 16.4 | 30.1 | – | 33.1 | 21 | 42.5 | – | – | – | – |
| COC1C(O)C(CO)OC(OC2C(O)COC(OC3C(C)OC(OC4C(O[C@H]5CC[C@@]6(C)C(CC=C7[C@H]6CCC68C(=O)O[C@@](C)(CCCC(C)C)[C@H]6[C@@H](OC(C)=O)C[C@@]78C)C5(C)C)OCC(OS(=O)(=O)O)C4O)C(OC4OCC(O)C(O)C4O)C3O)C2O)C1O (some centres undefined) | – | – | 0.0746 | 0.193 | 0.158 | 0.389 | 0.147 | 0.433 | 0.175 | 0.353 | 0.303 | 0.922 | 0.134 | 0.349 | 0.0568 | 0.209 | 0.196 | 0.532 | 0.207 | 0.63 |
| CN(CCNCc1ccccn1)CCNCc1ccccn1 | 3.85 | 22.6 | 3.11 | 10.1 | 2.23 | 5.69 | 2.85 | 8.99 | 2.18 | 4.74 | – | – | 1.8 | 3.57 | 2.95 | 8.07 | 2.21 | 4.93 | 3.57 | > 100 |
| COc1ccc(-c2cc(C(=O)Nc3ccc(C)c(C)c3)nc(NC#N)n2)cc1 | – | – | – | > 100 | – | – | – | > 100 | – | > 100 | – | > 100 | – | > 100 | – | > 100 | – | – | – | – |
| CC1(c2ccccc2Cl)C(C#N)C(=O)NC(=O)C1C#N (centres undefined) | – | > 100 | – | – | – | > 100 | – | > 100 | – | > 100 | – | > 100 | – | > 100 | – | > 100 | – | – | – | – |
| COc1cc2c(cc1OC)-c1ncc3c(OC)c(OC)c(OC)cc3c1C2 | 16 | 29.4 | 33.8 | > 100 | 25.8 | > 100 | 96.5 | > 100 | 3.84 | 25.6 | 55.2 | > 100 | 36.7 | > 100 | 19.1 | 40.7 | – | – | 13.4 | 45 |
| C#CCNC(=O)[C@H](CC)[C@H]1CC[C@H](C)[C@H]([C@@H](C)[C@H](O)[C@H](C)C(=O)[C@H](CC)C2O[C@]3(C=CC(=O)[C@]4(CC[C@@](C)([C@H]5CC[C@](O)(CC)[C@H](C)O5)O4)O3)[C@H](C)C[C@@H]2C)O1 (some centres undefined) | 1.99 | 4.91 | – | – | 1.57 | 3.56 | 2.91 | > 100 | 1.68 | 4.28 | 1.78 | 7.02 | 2.67 | 8.19 | 2.61 | 11.2 | – | – | 2.26 | 7.72 |
| COCCNC(=O)C1C(=O)C(=O)N(CCOC)C1=O (centres undefined) | – | > 100 | – | – | – | > 100 | – | > 100 | – | > 100 | – | > 100 | – | > 100 | – | > 100 | – | – | – | – |
| N#CCCN1C/C(=C/c2ccc(Cl)cc2)C(=O)/C(=C/c2ccc(Cl)cc2)C1 | 0.516 | 2.94 | 0.275 | 0.841 | – | – | 3.01 | 15.7 | 1.8 | 4.1 | 2.95 | 12 | 0.868 | 2.77 | 1.89 | 10.4 | 1.37 | 2.99 | 3.4 | 52.2 |
| Cc1cc(N(CCCNc2ccnc3cc(Cl)ccc23)Cc2ccco2)nc(N2CCN(C)CC2)n1 | 3.65 | 14.3 | 3.73 | 16.7 | 1.87 | 3.84 | 3.59 | 19.6 | 1.99 | 3.74 | – | – | 1.83 | 3.63 | 4.34 | 15.4 | 1.69 | 3.23 | 4.13 | 18.8 |
| Cc1nc(C(=O)O)c2ccccc2n1 | – | – | – | > 100 | – | > 100 | – | – | – | > 100 | – | > 100 | – | > 100 | – | > 100 | – | – | – | – |
| CCCCC1(C)C=C/C(=C2/C(=O)O/C(=C\C(=O)O)C2=O)O1 (centres undefined) | – | > 100 | – | > 100 | – | > 100 | – | > 100 | – | > 100 | – | – | – | > 100 | – | > 100 | – | – | – | – |
